Values of other authors in patent US7473685B2, “Process for preparation of chemically stable, dry-flow, low compact, dust free, soluble granules of phosphoroamidothioates” (United Phosphorus, Ltd., priority 2001, dated 2009).

System: aphids, leaf-miners, lepidopterous, larvae, sawflies and thrips
Conditions: systemic and contact insecticide of moderate persistence

In the case of `COP(=O)(NC(C)=O)SC` (stereo not shown) [Acephate], the residual activity lasting is listed as 10 to 15 days.
